According to paper PMC5503199 (Molecular microbiology, 2009):
Where two headings read alike, the source gives them in different places.

What was measured:
[1] = target: T1, ChoXWV (Sinorhizobium meliloti, UniProt Q92N37); assay: Competitive uptake, MKH13 expressing choXWV; assay type: cell-based; settings: pNchoXWV, SBP ChoX, [^14C]choline 10 μM, competitor 1 mM
T1 sequence (Q92N37 28-318): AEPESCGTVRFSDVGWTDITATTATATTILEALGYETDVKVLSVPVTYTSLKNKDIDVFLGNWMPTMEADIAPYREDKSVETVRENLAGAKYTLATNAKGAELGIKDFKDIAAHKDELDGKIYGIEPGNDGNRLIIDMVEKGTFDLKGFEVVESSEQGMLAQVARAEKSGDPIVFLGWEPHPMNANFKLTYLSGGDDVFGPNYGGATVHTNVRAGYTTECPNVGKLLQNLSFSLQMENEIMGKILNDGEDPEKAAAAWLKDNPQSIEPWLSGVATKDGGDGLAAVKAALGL
T1 sequence (Q92N36 1-281 partner): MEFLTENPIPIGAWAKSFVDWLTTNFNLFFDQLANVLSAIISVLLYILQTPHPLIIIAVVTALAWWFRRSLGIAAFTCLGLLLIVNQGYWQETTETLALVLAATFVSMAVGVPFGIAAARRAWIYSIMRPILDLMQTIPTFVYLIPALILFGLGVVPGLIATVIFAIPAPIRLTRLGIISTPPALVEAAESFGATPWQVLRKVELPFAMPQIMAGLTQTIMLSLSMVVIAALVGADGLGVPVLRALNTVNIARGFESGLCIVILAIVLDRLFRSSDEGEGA
T1 sequence (Q92N35 1-349 partner): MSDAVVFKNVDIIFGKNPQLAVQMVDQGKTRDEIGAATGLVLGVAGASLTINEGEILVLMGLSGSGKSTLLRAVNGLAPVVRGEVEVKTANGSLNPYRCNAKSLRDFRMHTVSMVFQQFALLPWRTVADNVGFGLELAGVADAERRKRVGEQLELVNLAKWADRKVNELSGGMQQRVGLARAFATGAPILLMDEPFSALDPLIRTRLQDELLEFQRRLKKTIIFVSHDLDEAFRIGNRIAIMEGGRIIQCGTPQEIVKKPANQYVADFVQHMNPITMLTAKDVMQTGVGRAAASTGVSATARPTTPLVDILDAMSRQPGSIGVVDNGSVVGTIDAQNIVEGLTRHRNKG

[2] = tested on: CbcXWV from P. aeruginosa PAO1; assay type: cell-based, Pseudomonas aeruginosa; settings: MKH13, pCbcPAO1; radiolabelled substrate 1 mM; mean (SE), n = 10
[3] = target: CbcX with CbcWV (Pseudomonas aeruginosa, UniProt Q9HTI6); assay: Competitive uptake, MKH13 expressing cbcXWV; assay type: cell-based; settings: MKH13, pNcbcXWV, SBP CbcX, competitor 1 mM
[4] = tested on: CbcWV with BetXDC3000; assay type: cell-based, Pseudomonas syringae pv. tomato; settings: MKH13; pNcbcWV, pT-D3758; SBP BetXDC3000; substrate 10 μM; single replication
[5] = tested on: CbcWV with BetXPAO1; assay type: cell-based, Pseudomonas aeruginosa; settings: MKH13; pNcbcWV, pT-PA3236; SBP BetXPAO1; substrate 10 μM; single replication
[6] = tested on: E. coli strains MKH13 and Acella; assay: Total uptake by E. coli strains carrying empty vector; assay type: cell-based, Escherichia coli
[7] = tested on: Cbc core transporter CbcWV; assay type: cell-based, Pseudomonas aeruginosa; settings: MKH13, pNcbcWV, SBP None, substrate 10 μM, single replication
[8] = tested on: CbcXWV from B728a; assay type: cell-based, Pseudomonas syringae pv. syringae; settings: Acella, pET-cbcB728a; 1 mM IPTG; substrate 1 mM; single colony
[9] = tested on: CbcWV with CaiXPAO1; assay type: cell-based, Pseudomonas aeruginosa; settings: MKH13; pNcbcWV, pT-PA5388; SBP CaiXPAO1; substrate 10 μM; single replication
[10] = tested on: CbcWV with CaiXB728a; assay type: cell-based, Pseudomonas syringae pv. syringae; settings: MKH13; pNcbcWV, pT-B2916; SBP CaiXB728a; substrate 10 μM; single replication
[11] = tested on: CbcXWV from DC3000; assay type: cell-based, Pseudomonas syringae pv. tomato; settings: Acella, pET-cbcDC3000; 1 mM IPTG; substrate 1 mM; mean (SE), n = 10
[12] = tested on: CaiX with CbcWV; assay type: cell-based, Pseudomonas aeruginosa; settings: MKH13; pNcbcWV, pT-PA5388; SBP CaiX; [^14C]carnitine 10 μM; competitor 1 mM
[13] = tested on: Cbc core transporter CbcWV (PAO1) with chromosomally encoded SBPs; assay type: cell-based, Pseudomonas aeruginosa; settings: pNcbcWV
[14] = tested on: cbcXWV from PAO1 in QAC transporter-deficient BT strain; assay type: cell-based, Pseudomonas aeruginosa; settings: BT(pCbcPAO1), unlabelled competitor 0.5 mM, 10 min
[15] = tested on: S. meliloti ChoXWV transporter; assay type: cell-based, Sinorhizobium meliloti
[16] = tested on: cbcXWV from DC3000 in QAC transporter-deficient BT strain; assay type: cell-based, Pseudomonas syringae pv. tomato; settings: BT(pCbcDC3000), unlabelled competitor 0.5 mM, 10 min
[17] = tested on: P. syringae BT-derived mutants; assay type: cell-based, Pseudomonas syringae pv. syringae; settings: pN
[18] = Acella, pET15b, 1 mM IPTG, substrate 1 mM, single colony
[19] = MKH13, pME6041, radiolabelled substrate 1 mM, mean (SE), n = 10
[20] = host BT0028Ko, substrate 10 μM, mean (SE), n = 2
[21] = host BT2916Ko, substrate 10 μM, single replication
[22] = host BT3758Ko, substrate 10 μM, mean (SE), n = 3
[23] = pNchoXW, host BT0028Ko, substrate 10 μM, mean (SE), n = 2
[24] = pNchoXW, host BT3758Ko, substrate 10 μM, mean (SE), n = 3
[25] = pNchoXWV, host BT2916Ko, substrate 10 μM, single replication
[26] = host BT2916Ko, substrate 1 mM, single replication

| Compound | % inhibition of uptake of substrate by unlabelled competitor [1] [%] | Total uptake [2] | % inhibition of uptake of substrate by unlabelled competitor ([3]; [^14C]betaine 10 μM) [%] | % inhibition of uptake of substrate by unlabelled competitor ([3]; [^14C]choline 10 μM) | Total uptake [4] | Total uptake [5] | Total uptake [6, 18] | Total uptake [6, 19] | Total uptake ([7]; Plasmid 2 None) | Total uptake ([7]; pTOK2T) | Total uptake [8] | Total uptake [9] | Total uptake [10] | Total uptake [11] | % inhibition of uptake of substrate by unlabelled competitor [12] [%] | Total uptake [13, 20] | Total uptake [13, 21] | Total uptake [13, 22] | % inhibition of uptake of [^14C]substrate ([14]; [^14C]betaine 5 μM) [%] | % inhibition of uptake of [^14C]substrate ([14]; [^14C]carnitine 5 μM) [%] | further results |
| --- | --- | --- | --- | --- | --- | --- | --- | --- | --- | --- | --- | --- | --- | --- | --- | --- | --- | --- | --- | --- | --- |
| C[N+](C)(C)CC(=O)O [Betaine, glycine betaine] | 3 | 5.8 (1.1) nmol (mg protein)^−1 | 87 | not inhibited | 6.1 nmol (mg protein)^−1 | 21.6 nmol (mg protein)^−1 | 8.2 nmol (mg protein)^−1 | 0.5 (0.5) nmol (mg protein)^−1 | 0 nmol (mg protein)^−1 | 0 nmol (mg protein)^−1 | 16.2 nmol (mg protein)^−1 | 0 nmol (mg protein)^−1 | 0 nmol (mg protein)^−1 | 17.0 (1.8) nmol (mg protein)^−1 | 5 | 17.2 (0.2) nmol (mg protein)^−1 | 17.2 nmol (mg protein)^−1 | 0.1 (0.01) nmol (mg protein)^−1 | 83 | 84 | % inhibition of uptake of substrate by unlabelled competitor ([3]; [^14C]choline 10 μM, listed as Bet): 2%; % inhibition of uptake of [^14C]substrate ([14]; [^14C]choline 5 μM): 9%; Total uptake [15, 23]: 2.8 (0.3) nmol (mg protein)^−1; Total uptake [15, 24]: 3.0 (0.64) nmol (mg protein)^−1; Total uptake [15, 25]: 3.0 nmol (mg protein)^−1; % inhibition of uptake of [^14C]substrate ([16]; [^14C]betaine 5 μM): 89%; % inhibition of uptake of [^14C]substrate ([16]; [^14C]carnitine 5 μM): 88%; % inhibition of uptake of [^14C]substrate ([16]; [^14C]choline 5 μM): 12%; Total uptake ([17]; host BT0028Ko, substrate 10 μM): 0.0 nmol (mg protein)^−1; Total uptake [17, 21]: 0.0 nmol (mg protein)^−1; Total uptake ([17]; host BT3758Ko, substrate 10 μM): 0.0 nmol (mg protein)^−1 |
| C[N+](C)(C)C[C@H](O)CC(=O)[O-] [Carnitine, L-carnitine] | 41 | 0.8 (0.4) nmol (mg protein)^−1 | 3 | 6% | 0 nmol (mg protein)^−1 | 0 nmol (mg protein)^−1 | 0 nmol (mg protein)^−1 | 0.5 (0.3) nmol (mg protein)^−1 | 0 nmol (mg protein)^−1 | 0 nmol (mg protein)^−1 | 0 nmol (mg protein)^−1 | 3.8 nmol (mg protein)^−1 | 3.7 nmol (mg protein)^−1 | 0.59 (0.82) nmol (mg protein)^−1 | 91 | 16.3 (0.91) nmol (mg protein)^−1 | 0.3 nmol (mg protein)^−1 | 15.1 (0.16) nmol (mg protein)^−1 | 2 | 94 | % inhibition of uptake of [^14C]substrate ([14]; [^14C]choline 5 μM): 1%; Total uptake [15, 23]: 1.2 (0.1) nmol (mg protein)^−1; Total uptake [15, 24]: 1.8 (0.4) nmol (mg protein)^−1; Total uptake [15, 25]: 0.1 nmol (mg protein)^−1; % inhibition of uptake of [^14C]substrate ([16]; [^14C]betaine 5 μM): −2%; % inhibition of uptake of [^14C]substrate ([16]; [^14C]carnitine 5 μM): 94%; % inhibition of uptake of [^14C]substrate ([16]; [^14C]choline 5 μM): −6%; Total uptake ([17]; host BT0028Ko, substrate 10 μM): 0.0 nmol (mg protein)^−1; Total uptake [17, 21]: 0.1 nmol (mg protein)^−1; Total uptake ([17]; host BT3758Ko, substrate 10 μM): 0.0 nmol (mg protein)^−1 |
| C[N+](C)(C)CCO [Choline, choline] | 98 | 12.1 (1.1) nmol (mg protein)^−1 | 99 | 92% | 0 nmol (mg protein)^−1 | 0 nmol (mg protein)^−1 | 0 nmol (mg protein)^−1 | 0.2 (0.1) nmol (mg protein)^−1 | 0 nmol (mg protein)^−1 | 0 nmol (mg protein)^−1 | 19.2 nmol (mg protein)^−1 | 0 nmol (mg protein)^−1 | 0 nmol (mg protein)^−1 | 15.0 (2.4) nmol (mg protein)^−1 | 5 | 0.11 (0.05) nmol (mg protein)^−1 | 0.15 nmol (mg protein)^−1 | 0.15 (0.05) nmol (mg protein)^−1 | −6 | 77 | Total uptake ([13]; host BT0028Ko, substrate 1 mM, mean (SE), n = 2): 8.9 (1.4) nmol (mg protein)^−1; Total uptake [13, 26]: 8.6 nmol (mg protein)^−1; Total uptake ([13]; host BT3758Ko, substrate 1 mM, mean (SE), n = 3): 7.1 (0.6) nmol (mg protein)^−1; % inhibition of uptake of [^14C]substrate ([14]; [^14C]choline 5 μM): 84%; Total uptake [15, 23]: 7.8 (0.07) nmol (mg protein)^−1; Total uptake ([15]; pNchoXW, host BT0028Ko, substrate 1 mM, mean (SE), n = 2): 8.5 (1.4) nmol (mg protein)^−1; Total uptake [15, 24]: 8.6 (1.28) nmol (mg protein)^−1; Total uptake ([15]; pNchoXW, host BT3758Ko, substrate 1 mM, mean (SE), n = 3): 7.4 (0.8) nmol (mg protein)^−1; Total uptake [15, 25]: 6.5 nmol (mg protein)^−1; Total uptake ([15]; pNchoXWV, host BT2916Ko, substrate 1 mM, single replication): 6.1 nmol (mg protein)^−1; % inhibition of uptake of [^14C]substrate ([16]; [^14C]betaine 5 μM): −6%; % inhibition of uptake of [^14C]substrate ([16]; [^14C]carnitine 5 μM): 81%; % inhibition of uptake of [^14C]substrate ([16]; [^14C]choline 5 μM): 89%; Total uptake ([17]; host BT0028Ko, substrate 10 μM): 0.0 nmol (mg protein)^−1; Total uptake ([17]; host BT0028Ko, substrate 1 mM): 0 nmol (mg protein)^−1; Total uptake [17, 21]: 0.0 nmol (mg protein)^−1; Total uptake [17, 26]: 0 nmol (mg protein)^−1; Total uptake ([17]; host BT3758Ko, substrate 10 μM): 0.0 nmol (mg protein)^−1; Total uptake ([17]; host BT3758Ko, substrate 1 mM): 0 nmol (mg protein)^−1 |
